Test system: 699152-130-R-J1-PDC complex spheroid viability
Experiment: Anticancer human tumor 699152-130-R-J1-PDC patient-derived pancreatic carcinoma cell line growth inhibition [POLQ]
Settings: for IC50: curve of first compound; for viability, T/C: stronger effect = lower value
Outline: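 Growth inhibition in 3D: complex spheroids (tumor PDC, HUVEC, MSC) treated with POLQ inhibitor combinations; where Cmax unknown, highest tested concentration 10 microM, except SN-38 at 1 microM.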

[1] = second compound 0.0316 µM, first compound 0.0316 µM
[2] = second compound 0.0316 µM, first compound 0.1 µM
[3] = second compound 0.0316 µM, first compound 0.316 µM
[4] = second compound 0.0316 µM, first compound 1 µM
[5] = second compound 0.0316 µM, first compound 3.16 µM
[6] = second compound 0.0316 µM, first compound 10 µM
[7] = second compound 0.1 µM, first compound 0.0316 µM
[8] = second compound 0.1 µM, first compound 0.1 µM
[9] = second compound 0.1 µM, first compound 0.316 µM
[10] = second compound 0.1 µM, first compound 1 µM
[11] = second compound 0.1 µM, first compound 3.16 µM
[12] = second compound 0.1 µM, first compound 10 µM
[13] = second compound 0.316 µM, first compound 0.0316 µM
[14] = second compound 0.316 µM, first compound 0.1 µM
[15] = second compound 0.316 µM, first compound 0.316 µM
[16] = second compound 0.316 µM, first compound 1 µM
[17] = second compound 0.316 µM, first compound 3.16 µM
[18] = second compound 0.316 µM, first compound 10 µM
[19] = second compound 1 µM, first compound 0.0316 µM
[20] = second compound 1 µM, first compound 0.1 µM
[21] = second compound 1 µM, first compound 0.316 µM
[22] = second compound 1 µM, first compound 1 µM
[23] = second compound 1 µM, first compound 3.16 µM
[24] = second compound 1 µM, first compound 10 µM
[25] = second compound 3.16 µM, first compound 0.0316 µM
[26] = second compound 3.16 µM, first compound 0.1 µM
[27] = second compound 3.16 µM, first compound 0.316 µM
[28] = second compound 3.16 µM, first compound 1 µM
[29] = second compound 3.16 µM, first compound 3.16 µM
[30] = second compound 3.16 µM, first compound 10 µM
[31] = second compound 10 µM, first compound 0.0316 µM
[32] = second compound 10 µM, first compound 0.1 µM
[33] = second compound 10 µM, first compound 0.316 µM
[34] = second compound 10 µM, first compound 1 µM
[35] = second compound 10 µM, first compound 3.16 µM
[36] = second compound 10 µM, first compound 10 µM
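Further: spheroids exposed to agents for 7 days before viability reading.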
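Wherever viability, T/C is given: percent of DMSO vehicle control viability so 100% = vehicle and 0% = no viable signal.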

## CNCc1ccc(-c2[nH]c3cc(F)cc4c3c2CCNC4=O)cc1 + Cc1cccc(N(C)C(=O)C2C(O)CCN2c2nc(C)cc(C(F)(F)F)c2C#N)c1
Second compound 0.0316 µM
  IC50: > 10 µM
Second compound 0.1 µM
  IC50: > 10 µM
Second compound 0.316 µM
  IC50: > 10 µM
Second compound 1 µM
  IC50: > 10 µM
Second compound 3.16 µM
  IC50: > 10 µM
Second compound 10 µM
  IC50: > 10 µM
[1]
  viability, T/C: 95.5%
[2]
  viability, T/C: 88.8%
[3]
  viability, T/C: 101%
[4]
  viability, T/C: 95.3%
[5]
  viability, T/C: 113%
[6]
  viability, T/C: 126%
[7]
  viability, T/C: 88.8%
[8]
  viability, T/C: 106%
[9]
  viability, T/C: 92.2%
[10]
  viability, T/C: 103%
[11]
  viability, T/C: 105%
[12]
  viability, T/C: 119%
[13]
  viability, T/C: 95.5%
[14]
  viability, T/C: 94.2%
[15]
  viability, T/C: 96.6%
[16]
  viability, T/C: 111%
[17]
  viability, T/C: 123%
[18]
  viability, T/C: 114%
[19]
  viability, T/C: 92.7%
[20]
  viability, T/C: 86.9%
[21]
  viability, T/C: 88.9%
[22]
  viability, T/C: 94.8%
[23]
  viability, T/C: 99.4%
[24]
  viability, T/C: 127%
[25]
  viability, T/C: 101%
[26]
  viability, T/C: 87.7%
[27]
  viability, T/C: 96.6%
[28]
  viability, T/C: 98.1%
[29]
  viability, T/C: 115%
[30]
  viability, T/C: 122%
[31]
  viability, T/C: 99.2%
[32]
  viability, T/C: 101%
[33]
  viability, T/C: 105%
[34]
  viability, T/C: 97.9%
[35]
  viability, T/C: 109%
[36]
  viability, T/C: 116%

## CC(=O)O[C@H]1C(=O)[C@@]2(C)[C@H]([C@H](OC(=O)c3ccccc3)[C@]3(O)C[C@H](OC(=O)[C@H](O)[C@@H](NC(=O)c4ccccc4)c4ccccc4)C(C)=C1C3(C)C)[C@]1(OC(C)=O)CO[C@@H]1C[C@@H]2O + Cc1cccc(N(C)C(=O)C2C(O)CCN2c2nc(C)cc(C(F)(F)F)c2C#N)c1
Second compound 0.0316 µM
  IC50: > 3 µM
Second compound 0.1 µM
  IC50: > 3 µM
Second compound 0.316 µM
  IC50: > 3 µM
Second compound 1 µM
  IC50: > 3 µM
Second compound 3.16 µM
  IC50: > 3 µM
Second compound 10 µM
  IC50: > 3 µM
Second compound 0.0316 µM, first compound 0.00949 µM
  viability, T/C: 83.5%
Second compound 0.0316 µM, first compound 0.03 µM
  viability, T/C: 57.6%
Second compound 0.0316 µM, first compound 0.0949 µM
  viability, T/C: 56.1%
Second compound 0.0316 µM, first compound 0.3 µM
  viability, T/C: 56.9%
Second compound 0.0316 µM, first compound 0.949 µM
  viability, T/C: 67%
Second compound 0.0316 µM, first compound 3 µM
  viability, T/C: 65.9%
Second compound 0.1 µM, first compound 0.00949 µM
  viability, T/C: 79.7%
Second compound 0.1 µM, first compound 0.03 µM
  viability, T/C: 57.1%
Second compound 0.1 µM, first compound 0.0949 µM
  viability, T/C: 51%
Second compound 0.1 µM, first compound 0.3 µM
  viability, T/C: 57.7%
Second compound 0.1 µM, first compound 0.949 µM
  viability, T/C: 72.2%
Second compound 0.1 µM, first compound 3 µM
  viability, T/C: 64.9%
Second compound 0.316 µM, first compound 0.00949 µM
  viability, T/C: 74.5%
Second compound 0.316 µM, first compound 0.03 µM
  viability, T/C: 60.9%
Second compound 0.316 µM, first compound 0.0949 µM
  viability, T/C: 53.3%
Second compound 0.316 µM, first compound 0.3 µM
  viability, T/C: 59.4%
Second compound 0.316 µM, first compound 0.949 µM
  viability, T/C: 64.9%
Second compound 0.316 µM, first compound 3 µM
  viability, T/C: 64.1%
Second compound 1 µM, first compound 0.00949 µM
  viability, T/C: 81.2%
Second compound 1 µM, first compound 0.03 µM
  viability, T/C: 54.8%
Second compound 1 µM, first compound 0.0949 µM
  viability, T/C: 57.9%
Second compound 1 µM, first compound 0.3 µM
  viability, T/C: 61.3%
Second compound 1 µM, first compound 0.949 µM
  viability, T/C: 62.4%
Second compound 1 µM, first compound 3 µM
  viability, T/C: 71.8%
Second compound 3.16 µM, first compound 0.00949 µM
  viability, T/C: 82.8%
Second compound 3.16 µM, first compound 0.03 µM
  viability, T/C: 62.1%
Second compound 3.16 µM, first compound 0.0949 µM
  viability, T/C: 58.8%
Second compound 3.16 µM, first compound 0.3 µM
  viability, T/C: 65.2%
Second compound 3.16 µM, first compound 0.949 µM
  viability, T/C: 69.7%
Second compound 3.16 µM, first compound 3 µM
  viability, T/C: 79.1%
Second compound 10 µM, first compound 0.00949 µM
  viability, T/C: 84%
Second compound 10 µM, first compound 0.03 µM
  viability, T/C: 57%
Second compound 10 µM, first compound 0.0949 µM
  viability, T/C: 69.1%
Second compound 10 µM, first compound 0.3 µM
  viability, T/C: 65.9%
Second compound 10 µM, first compound 0.949 µM
  viability, T/C: 72.1%
Second compound 10 µM, first compound 3 µM
  viability, T/C: 82.8%

## CCCS(=O)(=O)Nc1ccc(F)c(C(=O)c2c[nH]c3ncc(-c4ccc(Cl)cc4)cc23)c1F + COC1C(OC(N)=O)C(O)C(Oc2ccc3c(O)c(NC(=O)c4ccc(O)c(CC=C(C)C)c4)c(=O)oc3c2C)OC1(C)C
Second compound 0.0316 µM
  IC50: > 10 µM
Second compound 0.1 µM
  IC50: > 10 µM
Second compound 0.316 µM
  IC50: > 10 µM
Second compound 1 µM
  IC50: > 10 µM
Second compound 3.16 µM
  IC50: > 10 µM
Second compound 10 µM
  IC50: > 10 µM
[1]
  viability, T/C: 117%
[2]
  viability, T/C: 105%
[3]
  viability, T/C: 125%
[4]
  viability, T/C: 151%
[5]
  viability, T/C: 172%
[6]
  viability, T/C: 64.7%
[7]
  viability, T/C: 115%
[8]
  viability, T/C: 109%
[9]
  viability, T/C: 126%
[10]
  viability, T/C: 159%
[11]
  viability, T/C: 191%
[12]
  viability, T/C: 64.1%
[13]
  viability, T/C: 108%
[14]
  viability, T/C: 112%
[15]
  viability, T/C: 134%
[16]
  viability, T/C: 149%
[17]
  viability, T/C: 177%
[18]
  viability, T/C: 59.9%
[19]
  viability, T/C: 105%
[20]
  viability, T/C: 115%
[21]
  viability, T/C: 126%
[22]
  viability, T/C: 147%
[23]
  viability, T/C: 171%
[24]
  viability, T/C: 64.1%
[25]
  viability, T/C: 105%
[26]
  viability, T/C: 121%
[27]
  viability, T/C: 124%
[28]
  viability, T/C: 145%
[29]
  viability, T/C: 281%
[30]
  viability, T/C: 68.3%
[31]
  viability, T/C: 107%
[32]
  viability, T/C: 114%
[33]
  viability, T/C: 123%
[34]
  viability, T/C: 148%
[35]
  viability, T/C: 175%
[36]
  viability, T/C: 66.4%

Reference: PubChem BioAssay AID1963835 (Molecular Pharmacology Branch, DTP, NCI, 2024)
